From US20070197430A1, “Conjugates And Therapeutic Uses Thereof” (priority 2004, published 2007) come the findings set out here.

Peptide text beside a SMILES is read from it.

In one data set the target is Bcl-2 ΔC22 (Homo sapiens, UniProt P10415). In words: Competition assay with biotinylated Bim-BH3 peptide. The class given is binding. The note with it: text says Bcl-2 and Bcl-xL. The source says: Alphascreen (Amplified Luminsecent Proximity Homogenous Assay) is a bead based technology which measures a biological interaction between molecules. The assay consists of two hydrogel coated beads which, when bought into close proximity by a binding interaction, allow a transfer of singlet oxygen from a donor bead to an acceptor bead.
Chain of Bcl-2 ΔC22 (P10415 1-217 limits assumed): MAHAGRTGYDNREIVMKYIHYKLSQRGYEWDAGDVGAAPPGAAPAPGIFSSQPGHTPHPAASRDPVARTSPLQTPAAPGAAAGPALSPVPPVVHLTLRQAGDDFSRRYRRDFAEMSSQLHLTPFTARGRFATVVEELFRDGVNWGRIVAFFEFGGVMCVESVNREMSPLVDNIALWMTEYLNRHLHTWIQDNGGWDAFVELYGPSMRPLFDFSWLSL
Upon binding a photosensitiser in the donor bead converts ambient oxygen to a more excited singlet state. This singlet oxygen then diffuses across to react with a chemiluminescer in the acceptor bead. Fluorophores within the same bead are activated, resulting in the emission of light.

Data set [1] is described as follows: Circular dichroism, alpha-helical content of peptides. The data set is classed as physicochemical. The note with it: 30% aqueous trifluoroethanol. The procedure:
Circular dichroism spectra were obtained using a Jasco Model J-710 spetropolarimeter at 20° C. using the following parameters: path length, 2 mm; step resolution, 0.1 nm; speed, 20 nm/min, accumulation, 4; response, 1 second; bandwidth, 1.0 nm. The peptides were analysed at a concentration of 0.5 mg/mL in 30% aqueous TFE. The alpha-helical content of the peptides were determined by methods described in Yang et al (1986), involving comparisons of spectra with model helical peptides.

As for `CC[C@H](C)[C@H](NC(C)=O)C(=O)N[C@@H](C)C(=O)N[C@@H](CCC(N)=O)C(=O)N[C@H]1CCC(=O)NCCCCCCNC(=O)CC[C@@H](C(=O)N[C@@H](Cc2ccccc2)C(N)=O)NC(=O)[C@H](CC(=O)O)NC(=O)CNC(=O)[C@H]([C@@H](C)CC)NC(=O)[C@H](CCCNC(=N)N)NC(=O)[C@H](CCCNC(=N)N)NC(=O)[C@H](CC(C)C)NC1=O` [C, Ac-IAQ-E-LRRIGD-E-F-NH2] (HELM PEPTIDE1{[ac].I.A.Q.E.L.R.R.I.G.D.E.F.[am]}|CHEM1{[C(CCCN[*:2])CCN[*:1]]}$PEPTIDE1,CHEM1,5:R3-1:R1|PEPTIDE1,CHEM1,12:R3-1:R2$$$V2.0), the “affinity over the unconstrained 12-mer, in words” value at Bcl-2 ΔC22 was “outstanding increases in affinity”. Moreover, in data set [1], the “% Helicity” value came out at 39%.
